Data as given in patent US20070104811A1, “Pharmaceutical composition useful for the treatment of prostate cancer” (priority 2005, published 2007).

Experiments:
[1] = test system: hepatocyte; test: Cell viability of control cells: neonatal hepatocyte; type: cell-based, rat; details: 100 μg/ml M. koenigii + 100 μg/ml T. terrestris, total 200 μg/ml; 96 h
Experimental: The hepatocytes from 2-day-old neonatal rat were isolated by method described previously by William E Russell (1997) with modifications. Briefly, the livers were perfused through the portal vein with a calcium-free solution consisting of 150 mM NaCl, 2.8 mM KCl, 5.5 mM glucose, and 25 mM HEPES (pH 7.6) for 10 min, followed by mincing and digestion in DMEM containing 0.05% collagenase type IV for 30 minutes. The cells were centrifuged (2000 g, 10 minutes) and dispersed in DMEM enriched with 10% fetal Bovine Serum, 1% antibiotic-antimycotic.
(§1) Viability of PC-3 after treatment as at the indicated times was determined by MTT assay -Cell titre 96 AQoueus One solution Cell Proliferation Assay (Promega, Corp. Madison, Wis.) as per manufacturer's protocol. Briefly, 10,000 cells were plated in triplicate in 96 well plates and incubated for 12 hours in complete media. Compound MK-3 was added as indicated on replacing them to fresh complete media and incubated upto 96 hours for varied time periods. 20 μl per well of cell titre 96 AQoueus One solution reagent. Incubate the plate for 1-4 hours at 37° C. and humidified 5% CO2 atmosphere. Absorbance was recorded at 490 nm with 96 well plate readers. Reference wavelength of 630 nm was used to reduce background contributed by non-specific absorbance due to cell debris.

[2] = test system: neonatal skeletal muscle cell; test: Cell viability of control cells: neonatal skeletal muscle cell; type: cell-based, rat; details: 100 μg/ml M. koenigii + 100 μg/ml T. terrestris, total 200 μg/ml; 96 h
Experimental: The skeletal muscles from 2-day-old neonatal rat were isolated by method described previously by William E Russell (1997) with modifications. Briefly, Soleus muscle were dissected, minced and digested with 0.2% Type II Collagenase and 0.05% trypsin in Phosphate buffered Saline (PBS) pH 7.4, 0.15M NaCl. The dispersed skeletal muscle cells were centrifuged (1000 g, 10 minutes) washed and resuspended in Phosphate buffered Saline (PBS) with 1% antibiotic-antimycotic. Cells were preincubated for 30 minutes at 37° C., 95% air/5%CO2. The floating muscle cells were plated on collagen coated T-25 flaks in Dulbecco's modified Eagle Medium enriched with 10% Fetal. Bovine Serum and 1% antibiotic-antimycotic
as §1, with “Incubate the plate for 1-4 hours at 37° C. and humidified 5% CO2 atmosphere.” left out

[3] = test system: cardiomyocyte; test: Cell viability of control cells: neonatal cardiomyocyte; type: cell-based, rat; details: 100 μg/ml M. koenigii + 100 μg/ml T. terrestris, total 200 μg/ml; 96 h
Experimental: The cardiomyocytes from 2-day-old neonatal rat were isolated by the method previously described by Yoshihiro Kimura (1994) with modifications. Briefly, heart was excised and minced in pre warmed (37° C.) Ads buffer (1.2M NaCl, 198 mM HEPES, 54 mM KCl, 8.3 mM MgSO4, 55.4 mM glucose, 95 mM NaH2PO4), digested in typeII Collagenase 0.05% and Pancreatin in 3-succesive digestions of 15 minutes each. Supernatant was pooled and cells palleted at 2000 g, 10 minutes. Cells were resuspended and plated in collagen coated T-25 flaks in Medium-199 enriched with 10% Fetal Bovine Serum and 1% antibiotic-antimycotic.
as §1

[4] = Acute toxicity as per WHO guidelines, haematological parameters; type: in vivo, Mice, Balb/C; details: mahanine 2 gm/kg body weight orally once, 15 days after treatment; vehicle control 92
Experimental: (§2) Experiments for acute toxicity are performed as per the guidelines of WHO. Experimental subject: Mice, Balb/C Male, female. 25 gms body weight (approx) 16 mice were divided into 2 groups 8 animals were received the dosage of @2 gm/kg body weight of combined extract. Equal volume of the vehicle (DMSO) were given to 8 animals wherein dose administered orally once and then animals sacrificed and haematological parameters checked 15 days after treatment.
as §2, with “compound” for “dosage of”, “weight.” for “weight of combined extract.”, “haematological and biochemical” for “haematological”

mahanine
toxic effects / cell death [1]: no sign of cell death
toxic effects / cell death [2]: no sign of cell death
toxic effects / cell death [3]: no sign of cell death
WBC [4]: 89
